In one assay the target is T1, CDK2/CycE (Homo sapiens, UniProt P24941).
T1 construct: GST; purchased ProQinase GmbH (Freiburg, Germany); host or cells: insect cells (Sf9)
In words: CDK2/CycE kinase assay (TR-FRET, Method 2). Conditions: Method 2, 10 μM ATP. Format: biochemical. From the text:
2. CDK2/CycE Kinase Assay:
CDK2/CycE -inhibitory activity of compounds of the present invention was quantified employing the CDK2/CycE TR-FRET assay as described in the following paragraphs:
Recombinant fusion proteins of GST and human CDK2 and of GST and human CycE, expressed in insect cells (Sf9) and purified by Glutathion-Sepharose affinity chromatography, were purchased from ProQinase GmbH (Freiburg, Germany). As substrate for the kinase reaction biotinylated peptide biotin-Ttds-YISPLKSPYKISEG (C-terminus in amid form) was used which can be purchased e.g. form the company JERINI Peptide Technologies (Berlin, Germany).
For the assay 50 nl of a 100 fold concentrated solution of the test compound in DMSO was pipetted into a black low volume 384 well microtiter plate (Greiner Bio-One, Frickenhausen, Germany), 2 μl of a solution of CDK2/CycE in aqueous assay buffer [50 mM Tris/HCl pH 8.0, 10 mM MgCl2, 1.0 mM dithiothreitol, 0.1 mM sodium ortho-vanadate, 0.01% (v/v) Nonidet-P40 (Sigma)] were added and the mixture was incubated for […] at 22° C. to allow pre-binding of the test compounds to the enzyme before the start of the kinase reaction. Then the kinase reaction was started by the addition of 3 μl of a solution of adenosine-tri-phosphate (ATP, 16.7 μM=>final conc. in the 5 μl assay volume is 10 μM) and substrate (1.25 μM=>final conc. in the 5 μl assay volume is 0.75 μM) in assay buffer and the resulting mixture was incubated for a reaction time of […] at 22° C. The concentration of CDK2/CycE was adjusted depending of the activity of the enzyme lot and was chosen appropriate to have the assay in the linear range, typical concentrations were in the range of 130 ng/ml. The reaction was stopped by the addition of 5 μl of a solution of TR-FRET detection reagents (0.2 μM streptavidine-XL665 [Cisbio Bioassays, Codolet, France] and 1 nM anti-RB(pSer807/pSer811)-antibody from BD Pharmingen [#558389] and 1.2 nM LANCE EU-W1024 labeled anti-mouse IgG antibody [Perkin-Elmer, product no. AD0077]) in an aqueous EDTA-solution (100 mM EDTA, 0.2% (w/v) bovine serum albumin in 100 mM HEPES/NaOH pH 7.0).
(§1) The resulting mixture was incubated 1 h at 22° C. to allow the formation of complex between the phosphorylated biotinylated peptide and the detection reagents. Subsequently the amount of phosphorylated substrate was evaluated by measurement of the resonance energy transfer from the Eu-chelate to the streptavidine-XL. Therefore, the fluorescence emissions at 620 nm and 665 nm after excitation at 350 nm was measured in a TR-FRET reader, e.g. a Rubystar (BMG Labtechnologies, Offenburg, Germany) or a Viewlux (Perkin-Elmer). The ratio of the emissions at 665 nm and at […] was taken as the measure for the amount of phosphorylated substrate. The data were normalised (enzyme reaction without inhibitor=0% inhibition, all other assay components but no enzyme=100% inhibition).

For a further assay, the target named is T2, CDK9/CycT1 (Homo sapiens, UniProt P50750).
T2 construct: Recombinant full-length His-tagged human CDK9 and CycT1; His; purchased Invitrogen PV4131; host or cells: insect cells
T2 sequence (P50750 whole entry): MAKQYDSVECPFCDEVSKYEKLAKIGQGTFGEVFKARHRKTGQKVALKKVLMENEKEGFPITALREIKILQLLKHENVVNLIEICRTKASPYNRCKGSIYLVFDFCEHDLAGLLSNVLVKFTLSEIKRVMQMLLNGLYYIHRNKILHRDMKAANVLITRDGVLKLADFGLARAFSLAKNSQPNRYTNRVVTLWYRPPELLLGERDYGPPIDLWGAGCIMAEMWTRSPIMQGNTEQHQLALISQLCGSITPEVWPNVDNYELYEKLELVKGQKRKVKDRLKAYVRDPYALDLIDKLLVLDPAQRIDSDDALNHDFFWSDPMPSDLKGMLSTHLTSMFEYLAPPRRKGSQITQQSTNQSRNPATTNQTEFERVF
T2 sequence (O60563 whole entry partner): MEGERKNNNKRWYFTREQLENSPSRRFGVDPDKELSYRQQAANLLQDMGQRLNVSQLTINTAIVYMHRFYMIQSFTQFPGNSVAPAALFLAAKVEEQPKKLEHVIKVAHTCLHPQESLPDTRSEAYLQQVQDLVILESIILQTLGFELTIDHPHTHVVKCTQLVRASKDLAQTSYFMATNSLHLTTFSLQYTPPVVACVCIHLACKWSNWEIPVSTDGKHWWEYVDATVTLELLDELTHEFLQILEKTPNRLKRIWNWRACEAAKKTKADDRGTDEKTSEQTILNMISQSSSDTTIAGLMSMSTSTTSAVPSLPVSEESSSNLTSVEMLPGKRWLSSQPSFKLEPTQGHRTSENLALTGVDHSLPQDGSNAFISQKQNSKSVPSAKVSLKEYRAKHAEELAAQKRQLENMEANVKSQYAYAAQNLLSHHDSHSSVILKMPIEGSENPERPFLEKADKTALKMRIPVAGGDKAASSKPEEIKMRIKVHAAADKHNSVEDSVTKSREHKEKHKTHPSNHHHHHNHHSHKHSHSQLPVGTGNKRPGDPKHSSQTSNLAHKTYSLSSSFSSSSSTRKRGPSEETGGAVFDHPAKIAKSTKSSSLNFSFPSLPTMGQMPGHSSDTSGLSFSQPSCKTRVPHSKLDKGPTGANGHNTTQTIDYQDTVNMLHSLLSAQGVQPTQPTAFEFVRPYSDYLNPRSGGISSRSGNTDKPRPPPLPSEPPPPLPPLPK
Briefly: CDK9/CycT1 kinase assay (TR-FRET, Method 1a). In kind it is biochemical. As to conditions: for IC50: Method 1a, 10 μM ATP; for Selectivity CDK9/CDK2: derived from Methods 1a. and 2.
Source text: 1a. CDK9/CyeT1 Kinase Assay:
CDK9/CycT1-inhibitory activity of compounds of the present invention was quantified employing the CDK9/CycT1 TR-FRET assay as described in the following paragraphs:
Recombinant full-length His-tagged human CDK9 and CycT1, expressed in insect cells and purified by Ni-NTA affinity chromatography, were purchased from Invitrogen (Cat. No PV4131). As substrate for the kinase reaction biotinylated peptide biotin-Ttds-YISPLKSPYKISEG (C-terminus in amid form) was used which can be purchased e.g. form the company JERINI Peptide Technologies (Berlin, Germany). For the assay 50 nl of a 100 fold concentrated solution of the test compound in DMSO was pipetted into a black low volume 384 well microtiter plate (Greiner Bio-One, Frickenhausen, Germany), 2 μl of a solution of CDK9/CycT1 in aqueous assay buffer [50 mM Tris/HCl pH 8.0, 10 mM MgCl2, 1.0 mM dithiothreitol, 0.1 mM sodium ortho-vanadate, 0.01% (v/v) Nonidet-P40 (Sigma)] were added and the mixture was incubated for 15 min at 22° C. to allow pre-binding of the test compounds to the enzyme before the start of the kinase reaction. Then the kinase reaction was started by the addition of 3 μl of a solution of adenosine-tri-phosphate (ATP, 16.7 μM=>final conc. in the 5 μl assay volume is 10 μM) and substrate (1.67 μM=>final conc. in the 5 μl assay volume is 1 μM) in assay buffer and the resulting mixture was incubated for a reaction time of 25 min at 22° C. The concentration of CDK9/CycT1 was adjusted depending of the activity of the enzyme lot and was chosen appropriate to have the assay in the linear range, typical concentrations were in the range of 1 μg/ml. The reaction was stopped by the addition of 5 μl of a solution of TR-FRET detection reagents (0.2 μM streptavidine-XL665 [Cisbio Bioassays, Codolet, France] and 1 nM anti-RB(pSer807/pSer811)-antibody from BD Pharmingen [#558389] and 1.2 nM LANCE EU-W1024 labeled anti-mouse IgG antibody [Perkin-Elmer, product no. AD0077]) in an aqueous EDTA-solution (100 mM EDTA, 0.2% (w/v) bovine serum albumin in 100 mM HEPES/NaOH pH 7.0).
as §1, with “HTRF” for “TR-FRET”
On the technique in general: TR-FRET usually uses a lanthanide donor and a delayed reading to cut background.

This note sets out measurements from patent publication US20150259300A1, “4-(ORTHO)-FLUOROPHENYL-5-FLUOROPYRIMIDIN-2-YL AMINES CONTAINING A SULFONE GROUP” (BAYER PHARMA AKTIENGESELLSCHAFT, priority 2012, published 2015).

Each structure is given as a SMILES string.

A word on the IC50: it is the concentration that inhibits the measured activity by half. A low value points to higher potency. `CCCS(=O)(=O)Cc1cc(F)cc(Nc2ncc(F)c(-c3ccc(F)cc3F)n2)c1` [Example 13, 4-(2,4-Difluorophenyl)-5-fluoro-N-{3-fluoro-5-[(propylsulfonyl)methyl]phenyl}pyrimidin-2-amine] had an IC50 at CDK2/CycE of 580 nM. Besides, at CDK9/CycT1, inhibition was half-maximal at 13 nM (IC50) and the “Selectivity CDK9/CDK2” value was determined as 44.
For `O=S(=O)(Cc1cccc(Nc2ncc(F)c(-c3ccc(F)cc3F)n2)c1)C1CC1` [Example 9, N-{3-[(Cyclopropylsulfonyl)methyl]phenyl}-4-(2,4-difluorophenyl)-5-fluoropyrimidin-2-amine] the same measures were 410 nM, 13 nM and 32.
The compound `CC(C)(C)S(=O)(=O)Cc1cccc(Nc2ncc(F)c(-c3ccc(F)cc3F)n2)c1` [Example 3, N-{3-[(tert-Butylsulfonyl)methyl]phenyl}-4-(2,4-difluorophenyl)-5-fluoropyrimidin-2-amine] had a half-maximal inhibitory concentration (IC50) against CDK2/CycE of 1000 nM. Also, on CDK9/CycT1, the IC50 was determined as 110 nM and the “Selectivity CDK9/CDK2” value came to 10.
At CDK2/CycE, `CC(C)S(=O)(=O)Cc1cccc(Nc2ncc(F)c(-c3ccc(F)cc3F)n2)c1` [Example 2, 4-(2,4-Difluorophenyl)-5-fluoro-N-{3-[(propan-2-ylsulfonyl)methyl]phenyl}pyrimidin-2-amine] yielded a concentration for half-maximal inhibition (IC50) of 1200 nM. On CDK9/CycT1, half-maximal inhibition (IC50) was put at 50 nM and the “Selectivity CDK9/CDK2” value is recorded as 24.
Regarding `COCCS(=O)(=O)Cc1cccc(Nc2ncc(F)c(-c3ccc(F)cc3F)n2)c1` [Example 4, 4-(2,4-Difluorophenyl)-5-fluoro-N-(3-{[(2-methoxyethyl)sulfonyl]methyl}phenyl)pyrimidin-2-amine], the IC50 at CDK2/CycE stood at 2600 nM. Moreover, at CDK9/CycT1, the 50% inhibitory concentration (IC50) is 130 nM and the “Selectivity CDK9/CDK2” value stood at 20.
For `CS(=O)(=O)Cc1cc(F)cc(Nc2ncc(F)c(-c3cc(F)c(F)cc3F)n2)c1` [Example 11, 5-Fluoro-N-{3-fluoro-5-[(methylsulfonyl)methyl]phenyl}-4-(2,4,5-trifluorophenyl)pyrimidin-2-amine] the same measures were greater than 20000 nM, 74 nM and greater than 270.
For `CS(=O)(=O)Cc1cc(F)cc(Nc2ncc(F)c(-c3ccc(F)c(F)c3F)n2)c1` [Example 12, 5-fluoro-N-{3-fluoro-5-[(methylsulfonyl)methyl]phenyl}-4-(2,3,4-trifluorophenyl)pyrimidin-2-amine] the same measures were 350 nM, 25 nM and 14.
For `CS(=O)(=O)Cc1cc(F)cc(Nc2ncc(F)c(-c3ccc(F)cc3F)n2)c1` [Example 10, 4-(2,4-Difluorophenyl)-5-fluoro-N-{3-fluoro-5-[(methylsulfonyl)methyl]phenyl}pyrimidin-2-amine] the same measures were 5800 nM, 130 nM and 28.
Regarding `CS(=O)(=O)Cc1cccc(Nc2ncc(F)c(-c3ccc(F)cc3F)n2)c1` [Example 5, 4-(2,4-Difluorophenyl)-5-fluoro-N-{3-[(methylsulfonyl)methyl]phenyl}pyrimidin-2-amine], half-maximal inhibition against CDK2/CycE (IC50) required 470 nM. Also, on CDK9/CycT1, the midpoint of inhibition, the IC50, lay at 51 nM and the “Selectivity CDK9/CDK2” value is listed as 9.1.
For `CCCS(=O)(=O)Cc1cccc(Nc2ncc(F)c(-c3ccc(F)cc3F)n2)c1` [Example 8, 4-(2,4-difluorophenyl)-5-fluoro-N-{3-[(propylsulfonyl)methyl]phenyl}pyrimidin-2-amine] the same measures were 570 nM, 39 nM and 15.
As to `CS(=O)(=O)Cc1cc(Nc2ncc(F)c(-c3ccc(F)cc3F)n2)cc(S(F)(F)(F)(F)F)c1` [Example 6, 4-(2,4-Difluorophenyl)-5-fluoro-N-{3-[(methylsulfonyl)methyl]-5-(pentafluoro-λ^6-sulfanyl)phenyl}pyrimidin-2-amine], the half-inhibitory concentration (IC50) against CDK2/CycE amounted to 1760 nM; against CDK9/CycT1, 14 nM. The “Selectivity CDK9/CDK2” value at CDK9/CycT1 is on record as 122.
